SMILES strings stand for the structures. Where only a bound is given, the exact number is not on record here.

Broadly, the IC50 is the point on the concentration scale where inhibition reaches its midpoint. A high value points to weaker potency in that assay.

The experiment deals with PIK3CG (human) (UniProt P48736). Put plainly: Assessment of PIK3CG Kinase Activity.
Sequence of PIK3CG (human) (P48736 whole entry, looked up): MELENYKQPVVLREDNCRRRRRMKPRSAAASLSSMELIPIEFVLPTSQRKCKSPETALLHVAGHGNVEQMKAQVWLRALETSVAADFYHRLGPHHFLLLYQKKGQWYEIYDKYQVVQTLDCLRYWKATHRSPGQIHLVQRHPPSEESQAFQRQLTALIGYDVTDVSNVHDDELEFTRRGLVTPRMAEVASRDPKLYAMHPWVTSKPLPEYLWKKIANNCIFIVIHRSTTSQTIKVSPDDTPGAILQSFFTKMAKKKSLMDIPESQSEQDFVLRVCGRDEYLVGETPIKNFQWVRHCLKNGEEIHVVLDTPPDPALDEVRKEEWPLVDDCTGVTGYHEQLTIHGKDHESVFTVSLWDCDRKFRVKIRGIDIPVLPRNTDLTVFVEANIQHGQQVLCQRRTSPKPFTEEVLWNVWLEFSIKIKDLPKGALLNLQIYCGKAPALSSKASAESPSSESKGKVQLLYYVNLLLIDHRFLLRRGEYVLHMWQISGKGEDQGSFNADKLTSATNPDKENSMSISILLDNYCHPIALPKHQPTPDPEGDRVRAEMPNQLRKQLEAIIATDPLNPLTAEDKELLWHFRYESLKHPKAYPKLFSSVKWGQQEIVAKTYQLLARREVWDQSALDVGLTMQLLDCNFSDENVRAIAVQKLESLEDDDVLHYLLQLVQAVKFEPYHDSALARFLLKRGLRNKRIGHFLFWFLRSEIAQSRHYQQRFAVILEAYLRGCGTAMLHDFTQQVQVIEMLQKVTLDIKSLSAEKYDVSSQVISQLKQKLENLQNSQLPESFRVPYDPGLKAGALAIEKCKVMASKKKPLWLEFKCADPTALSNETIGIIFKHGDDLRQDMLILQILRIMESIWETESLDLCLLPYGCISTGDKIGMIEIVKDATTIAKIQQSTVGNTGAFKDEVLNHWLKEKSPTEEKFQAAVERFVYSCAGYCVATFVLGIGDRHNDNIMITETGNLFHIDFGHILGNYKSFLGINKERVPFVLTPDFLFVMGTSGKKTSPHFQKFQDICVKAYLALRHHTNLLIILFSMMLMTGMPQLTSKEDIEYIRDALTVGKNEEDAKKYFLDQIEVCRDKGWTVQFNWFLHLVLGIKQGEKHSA

In turn, `CC(C)N1CC(=O)N(C)c2cnc(Nc3cc(C(=O)NC4CCN(C)C4)cc(S(C)(=O)=O)c3)nc21` (stereo not drawn) displayed an IC50 of less than 800 nM.

For the compound `CC(C)N1CC(=O)N(C)c2cnc(Nc3cc(NC(=O)Cc4cc5ccccc5n4C)cc(S(C)(=O)=O)c3)nc21`, the concentration for half-maximal inhibition (IC50) was less than 800 nM.

In turn, `CC(C)N1CC(=O)N(C)c2cnc(Nc3cc(S(C)(=O)=O)cc(S(C)(=O)=O)c3)nc21` registered an IC50 of less than 800 nM.

`CC(C)N1CC(=O)N(C)c2cnc(Nc3cccc(S(=O)(=O)CCO)c3)nc21` registered an IC50 of less than 800 nM.

For the compound `CC(C)N1CC(=O)N(C)c2cnc(Nc3cc(NC(=O)CCC4CCCC4)cc(S(C)(=O)=O)c3)nc21`, the IC50 was less than 800 nM.

As to `CC(C)N1CC(=O)N(C)c2cnc(Nc3cc(NC(=O)Cc4cccs4)cc(S(C)(=O)=O)c3)nc21`, the 50% inhibitory concentration (IC50) was less than 800 nM.

Take `CC(C)N1CC(=O)N(C)c2cnc(Nc3cc(NC(=O)[C@@H]4CCCN(C5CCCC5)C4)cc(S(C)(=O)=O)c3)nc21`: the IC50 is less than 800 nM.

`CCS(=O)(=O)c1cccc(Nc2ncc3c(n2)N(C2CCCCC2)CC(=O)N3C)c1` had a half-maximal inhibitory concentration (IC50) of less than 800 nM.

In turn, `CC(C)N1CC(=O)N(C)c2cnc(Nc3cc(NC(=O)N[C@H]4CC[C@@H](N)CC4)cc(S(C)(=O)=O)c3)nc21` gave an IC50 of less than 800 nM.

`CC(C)N1CC(=O)N(C)c2cnc(Nc3cccc(S(=O)(=O)CCNC4CCC4)c3)nc21` gave an IC50 of less than 800 nM.

For `CC(C)N1CC(=O)N(C)c2cnc(Nc3cc(NC(=O)Cc4noc5ccccc45)cc(S(C)(=O)=O)c3)nc21`, the IC50 is less than 800 nM.

Consider `CC(C)N1CC(=O)N(C)c2cnc(Nc3cc(NC(=O)Cc4cc5cc(F)ccc5[nH]4)cc(S(C)(=O)=O)c3)nc21`, for which the IC50 is less than 800 nM.

`CC(C)N1CC(=O)N(C)c2cnc(Nc3cc(NC(=O)[C@@H](N)c4ccccc4)cc(S(C)(=O)=O)c3)nc21` returned an IC50 of less than 800 nM.

For the compound `CC(C)N1CC(=O)N(C)c2cnc(Nc3cc(NC(=O)c4ccsc4)cc(S(C)(=O)=O)c3)nc21`, the IC50 is less than 800 nM.

For `CC(C)N1CC(=O)N(C)c2cnc(Nc3cc(NC(=O)NC[C@H]4CCCN4)cc(S(C)(=O)=O)c3)nc21`, the concentration for half-maximal inhibition (IC50) is less than 800 nM.

Turning to `CC(C)N1CC(=O)N(C)c2cnc(Nc3cc(NC(=O)[C@H](N)c4ccccc4)cc(S(C)(=O)=O)c3)nc21`, the IC50 was less than 800 nM.

For the compound `CC(C)CCC(=O)Nc1cc(Nc2ncc3c(n2)N(C(C)C)CC(=O)N3C)cc(S(C)(=O)=O)c1`, the half-inhibitory concentration (IC50) was less than 800 nM.

Take `CC(C)N1CC(=O)N(C)c2cnc(Nc3cc(NC(=O)[C@H](C)c4ccccc4)cc(S(C)(=O)=O)c3)nc21`: the half-maximal inhibitory concentration (IC50) was less than 800 nM.

`CC(C)N1CC(=O)N(C)c2cnc(Nc3cc(NC(=O)NCc4ccncc4)cc(S(C)(=O)=O)c3)nc21` yielded an IC50 of less than 800 nM.

`CC(C)N1CC(=O)N(C)c2cnc(Nc3cc(C#N)cc(S(C)(=O)=O)c3)nc21`: the half-inhibitory concentration (IC50) is less than 800 nM.

The compound `CC(C)N1CC(=O)N(C)c2cnc(Nc3cc(N(C)C(=O)N[C@H]4CCN(C5CCCC5)C4)cc(S(C)(=O)=O)c3)nc21` registered an IC50 of less than 800 nM.

Compound `CC(C)N1CC(=O)N(C)c2cnc(Nc3cc(C(=O)NCCc4ccncc4)cc(S(C)(=O)=O)c3)nc21` had a half-inhibitory concentration (IC50) of less than 800 nM.

Regarding `CC(C)N1CC(=O)N(C)c2cnc(Nc3cc(NC(=O)C4CN(C5CCCC5)CCO4)cc(S(C)(=O)=O)c3)nc21` (stereo not drawn), the IC50 is less than 800 nM.

For `CC(C)N1CC(=O)N(C)c2cnc(Nc3cc(NC(=O)C[C@H]4CCN(C5CCCC5)C4)cc(S(C)(=O)=O)c3)nc21`, the 50% inhibitory concentration (IC50) is less than 800 nM.

With `CC(C)N1CC(=O)N(C)c2cnc(Nc3cc(NC(=O)NCc4cc(C5CC5)[nH]n4)cc(S(C)(=O)=O)c3)nc21`, the IC50 is less than 800 nM.

Take `CC(C)N1CC(=O)N(C)c2cnc(Nc3cc(NC(=O)Cc4cccc(F)c4)cc(S(C)(=O)=O)c3)nc21`: the half-inhibitory concentration (IC50) is less than 800 nM.

The compound `Cc1cc(CNC(=O)Nc2cc(Nc3ncc4c(n3)N(C(C)C)CC(=O)N4C)cc(S(C)(=O)=O)c2)n[nH]1` had an IC50 of less than 800 nM.

Turning to `CC(C)N1CC(=O)N(C)c2cnc(Nc3cc(C(=O)NCCN4CCNC4=O)cc(S(C)(=O)=O)c3)nc21`, the IC50 was less than 800 nM.

On to `CC(C)N1CC(=O)N(C)c2cnc(Nc3cc(NS(C)(=O)=O)cc(C(=O)NCc4ccncc4)c3)nc21`, for which the IC50 is less than 800 nM.

Compound `CC(C)N1CC(=O)N(C)c2cnc(Nc3cc(NC(=O)c4csc5ccccc45)cc(S(C)(=O)=O)c3)nc21` had an IC50 of less than 800 nM.

Compound `Cc1oncc1C(=O)Nc1cc(Nc2ncc3c(n2)N(C(C)C)CC(=O)N3C)cc(S(C)(=O)=O)c1` yielded an IC50 of less than 800 nM.

In the case of `CC(C)N1CC(=O)N(C)c2cnc(Nc3cc(NC(=O)NC4CCN(C)CC4)cc(S(C)(=O)=O)c3)nc21`, the IC50 was less than 800 nM.

`CC(C)N1CC(=O)N(C)c2cnc(Nc3cc(NC(=O)Cc4cccnc4)cc(S(C)(=O)=O)c3)nc21`: the IC50 was less than 800 nM.

Take `CC(C)N1CC(=O)N(C)c2cnc(Nc3cc(NC(=O)[C@@H]4CCNC4)cc(S(C)(=O)=O)c3)nc21`: the half-inhibitory concentration (IC50) was less than 800 nM.

`CC(C)N1CC(=O)N(C)c2cnc(Nc3cc(NC(=O)NCCCN(C)C)cc(S(C)(=O)=O)c3)nc21` registered a 50% inhibitory concentration (IC50) of less than 800 nM.

`CC(C)N1CC(=O)N(C)c2cnc(Nc3cc(NC(=O)N(C)Cc4ccncc4)cc(S(C)(=O)=O)c3)nc21` returned a 50% inhibitory concentration (IC50) of less than 800 nM.

In turn, `CC(C)N1CC(=O)N(C)c2cnc(Nc3cccc(S(=O)(=O)CCN(C)C)c3)nc21` showed a concentration for half-maximal inhibition (IC50) of less than 800 nM.

`CC(C)N1CC(=O)N(C)c2cnc(Nc3cc(NC(=O)NC[C@H]4CCCN4C4CCCC4)cc(S(C)(=O)=O)c3)nc21`: the concentration for half-maximal inhibition (IC50) was less than 800 nM.

`CC(C)NCCS(=O)(=O)c1cccc(Nc2ncc3c(n2)N(C(C)C)CC(=O)N3C)c1`: the half-maximal inhibitory concentration (IC50) was less than 800 nM.

`CC(C)N1CC(=O)N(C)c2cnc(Nc3cc(NC(=O)NCc4ccccc4)cc(S(C)(=O)=O)c3)nc21` had a concentration for half-maximal inhibition (IC50) of less than 800 nM.

`CC(C)N1CC(=O)N(C)c2cnc(Nc3cc(NC(=O)N(C)C[C@@H]4CCCN4C4CCCC4)cc(S(C)(=O)=O)c3)nc21` displayed a half-inhibitory concentration (IC50) of less than 800 nM.

For the compound `CC(C)N1CC(=O)N(C)c2cnc(Nc3cc(N(C)C(=O)Nc4ccccc4)cc(S(C)(=O)=O)c3)nc21`, the IC50 is less than 800 nM.

Consider `CC(C)N1CC(=O)N(C)c2cnc(Nc3cc(NS(C)(=O)=O)cc(C(=O)NCCc4ccccn4)c3)nc21`, for which the IC50 is less than 800 nM.

On to `CC(C)N1CC(=O)N(C)c2cnc(Nc3cc(NC(=O)C(C)(C)c4ccccc4)cc(S(C)(=O)=O)c3)nc21`, for which the IC50 was less than 800 nM.

As to `CCc1cnc(CCNC(=O)Nc2cc(Nc3ncc4c(n3)N(C(C)C)CC(=O)N4C)cc(S(C)(=O)=O)c2)o1`, the IC50 was less than 800 nM.

In turn, `CC(C)N1CC(=O)N(C)c2cnc(Nc3cc(NC(=O)Cc4c[nH]c5ccccc45)cc(S(C)(=O)=O)c3)nc21` had an IC50 of less than 800 nM.

`CNS(=O)(=O)c1cccc(Nc2ncc3c(n2)N(C(C)C)CC(=O)N3C)c1` yielded an IC50 of less than 800 nM.

`CC(C)N1CC(=O)N(C)c2cnc(Nc3cc(NC(=O)[C@@H]4CCCN4)cc(S(C)(=O)=O)c3)nc21` showed an IC50 of less than 800 nM.

The compound `CC(C)N1CC(=O)N(C)c2cnc(Nc3cc(NC(=O)N(C)C[C@H]4CCCN4C4CCCC4)cc(S(C)(=O)=O)c3)nc21` showed an IC50 of less than 800 nM.

Turning to `CC(C)N1CC(=O)N(C)c2cnc(Nc3cc(NS(C)(=O)=O)cc(C(=O)NCCC4CCCN4C)c3)nc21` (stereo not drawn), the IC50 is less than 800 nM.

`CC(C)N1CC(=O)N(C)c2cnc(Nc3cc(NC(=O)Cc4nnn[nH]4)cc(S(C)(=O)=O)c3)nc21` came in with a concentration for half-maximal inhibition (IC50) of less than 800 nM.

Compound `CC(C)N1CC(=O)N(C)c2cnc(Nc3cc(CS(C)(=O)=O)cc(C(F)(F)F)c3)nc21` showed an IC50 of less than 800 nM.

`CC(C)N1CC(=O)N(C)c2cnc(Nc3cc(C(=O)NCCN4CCNC4=O)cc(C(F)(F)F)c3)nc21` returned an IC50 of less than 800 nM.

In the case of `CCC(C)Nc1cc(Nc2ncc3c(n2)N(C(C)C)CC(=O)N3C)cc(S(C)(=O)=O)c1` (stereo not drawn), the 50% inhibitory concentration (IC50) is less than 800 nM.

For the compound `CC(C)N1CC(=O)N(C)c2cnc(Nc3cccc(S(=O)(=O)CCN4CCOCC4)c3)nc21`, the IC50 is less than 800 nM.

Compound `CC(C)N1CC(=O)N(C)c2cnc(Nc3cc(NC(=O)[C@@H]4CCN(C5CCCC5)C4)cc(S(C)(=O)=O)c3)nc21` showed an IC50 of less than 800 nM.

Consider `Cc1[nH]c2ccccc2c1CC(=O)Nc1cc(Nc2ncc3c(n2)N(C(C)C)CC(=O)N3C)cc(S(C)(=O)=O)c1`, for which the IC50 was less than 800 nM.

Consider `CC(C)N1CC(=O)N(C)c2cnc(Nc3cc(N(C)C(=O)Cc4cccs4)cc(S(C)(=O)=O)c3)nc21`, for which the 50% inhibitory concentration (IC50) is less than 800 nM.

`CC(C)N1CC(=O)N(C)c2cnc(Nc3cc(NC(=O)N[C@@H]4CCN(C5CCOCC5)C4)cc(S(C)(=O)=O)c3)nc21` gave an IC50 of less than 800 nM.

As for `CC(C)N1CC(=O)N(C)c2cnc(Nc3cc(NC(=O)N[C@H]4CCN(C5CCCC5)C4)cc(S(N)(=O)=O)c3)nc21`, the IC50 is less than 800 nM.

In turn, `CN1C(=O)CN(c2ccccc2)c2nc(Nc3cccc(S(=O)(=O)CCNC4CC4)c3)ncc21` yielded an IC50 of less than 800 nM.

In the case of `CC(C)N1CC(=O)N(C)c2cnc(Nc3cc(NC(=O)[C@@H]4CCCN4C4CCCC4)cc(S(C)(=O)=O)c3)nc21`, the half-inhibitory concentration (IC50) was less than 800 nM.

Consider `CC(C)N1CC(=O)N(C)c2cnc(Nc3cc(NC4CCC(N)CC4)cc(S(C)(=O)=O)c3)nc21` (stereo not drawn), for which the half-maximal inhibitory concentration (IC50) was less than 800 nM.

In turn, `CC(C)N1CC(=O)N(C)c2cnc(Nc3cc(NC(=O)Cc4cccc(Cl)c4)cc(S(C)(=O)=O)c3)nc21` gave a 50% inhibitory concentration (IC50) of less than 800 nM.

`CC(C)N1CC(=O)N(C)c2cnc(Nc3cc(NC(=O)NC[C@@H]4CCNC4)cc(S(C)(=O)=O)c3)nc21`: the IC50 was less than 800 nM.

`Cc1ccccc1CC(=O)Nc1cc(Nc2ncc3c(n2)N(C(C)C)CC(=O)N3C)cc(S(C)(=O)=O)c1` gave an IC50 of less than 800 nM.

With `CC(C)N1CC(=O)N(C)c2cnc(Nc3cc(NC(=O)N[C@H]4CCN(C(=O)OC(C)(C)C)C4)cc(S(C)(=O)=O)c3)nc21`, the half-maximal inhibitory concentration (IC50) is less than 800 nM.

On to `CC(C)N1CC(=O)N(C)c2cnc(Nc3cccc(S(=O)(=O)C(C)C)c3)nc21`, for which the IC50 was less than 800 nM.

The compound `CC[C@@H]1CN(c2cccc(Nc3ncc4c(n3)N(C(C)C)CC(=O)N4C)c2)C(=O)CN1C` came in with an IC50 of less than 800 nM.

In turn, `CC(C)N1CC(=O)N(C)c2cnc(Nc3cc(NC(=O)[C@@H]4CCCNC4)cc(S(C)(=O)=O)c3)nc21` displayed a concentration for half-maximal inhibition (IC50) of less than 800 nM.

For the compound `CC(C)N1CC(=O)N(C)c2cnc(Nc3cc(NS(=O)(=O)Cc4ccccc4)cc(S(C)(=O)=O)c3)nc21`, the IC50 was less than 800 nM.

Compound `Cc1cccc(CC(=O)Nc2cc(Nc3ncc4c(n3)N(C(C)C)CC(=O)N4C)cc(S(C)(=O)=O)c2)c1` yielded a 50% inhibitory concentration (IC50) of less than 800 nM.

`CC(C)N1CC(=O)N(C)c2cnc(Nc3cc(NC(=O)N[C@H]4CCN(Cc5ccccc5)C4)cc(S(C)(=O)=O)c3)nc21` displayed a concentration for half-maximal inhibition (IC50) of less than 800 nM.

These data come from the Kinase Knowledgebase extract (Sharma et al. 2016).
